In patent publication US20250352520A1, “USE OF DEXPRAMIPEXOLE FOR THE TREATMENT OF EOSINOPHILIC COPD” (Areteia Therapeutics, Inc., priority 2024, published 2025):

Conditions: Week 12; >=50% AEC reduction at Week 16

## CCCN[C@@H]1CCc2nc(N)sc2C1 [Dexpramipexole, (6R)-2-amino-4,5,6,7-tetrahydro-6-(propylamino)benzothiazole]
  Pre-BD FEF25-75 % change from baseline, Max: 14%
  Pre-BD FEF25-75 % change from baseline, Mean ± SD: 6.3 ± 8.24%
  Pre-BD FEF25-75 % change from baseline, Median: 6.8%
  Pre-BD FEF25-75 % change from baseline, Min: −2%
  Pre-BD FEF25-75 % change from baseline, Q1: −2%
  Pre-BD FEF25-75 % change from baseline, Q3: 14%
  Pre-BD FEF25-75 Observed, Max: 900 mL/s
  Pre-BD FEF25-75 Observed, Mean ± SD: 640.0 ± 351.57 mL/s
  Pre-BD FEF25-75 Observed, Median: 780.0 mL/s
  Pre-BD FEF25-75 Observed, Min: 240 mL/s
  Pre-BD FEF25-75 Observed, Q1: 240 mL/s
  Pre-BD FEF25-75 Observed, Q3: 900 mL/s
  Pre-BD FEF25-75 change from baseline, Max: 50 mL/s
  Pre-BD FEF25-75 change from baseline, Mean ± SD: 20.0 ± 36.06 mL/s
  Pre-BD FEF25-75 change from baseline, Median: 30.0 mL/s
  Pre-BD FEF25-75 change from baseline, Min: -20 mL/s
  Pre-BD FEF25-75 change from baseline, Q1: -20 mL/s
  Pre-BD FEF25-75 change from baseline, Q3: 50 mL/s
  Pre-BD FEV1 % change from baseline, Max: 37%
  Pre-BD FEV1 % change from baseline, Mean ± SD: 25.3 ± 19.37%
  Pre-BD FEV1 % change from baseline, Median: 36. %
  Pre-BD FEV1 % change from baseline, Min: 3%
  Pre-BD FEV1 % change from baseline, Q1: 3%
  Pre-BD FEV1 % change from baseline, Q3: 37%
  Pre-BD FEV1 Observed, Max: 1780 mL
  Pre-BD FEV1 Observed, Mean ± SD: 1496.7 ± 448.14 mL
  Pre-BD FEV1 Observed, Median: 1730.0 mL
  Pre-BD FEV1 Observed, Min: 980 mL
  Pre-BD FEV1 Observed, Q1: 980 mL
  Pre-BD FEV1 Observed, Q3: 1780 mL
  Pre-BD FEV1 change from baseline, Max: 480 mL
  Pre-BD FEV1 change from baseline, Mean ± SD: 263.3 ± 215.02 mL
  Pre-BD FEV1 change from baseline, Median: 260.0 mL
  Pre-BD FEV1 change from baseline, Min: 50 mL
  Pre-BD FEV1 change from baseline, Q1: 50 mL
  Pre-BD FEV1 change from baseline, Q3: 480 mL
  Pre-BD FVC % change from baseline, Max: 18%
  Pre-BD FVC % change from baseline, Mean ± SD: 12.0 ± 5.17%
  Pre-BD FVC % change from baseline, Median: 11.1%
  Pre-BD FVC % change from baseline, Min: 7%
  Pre-BD FVC % change from baseline, Q1: 7%
  Pre-BD FVC % change from baseline, Q3: 18%
  Pre-BD FVC Observed, Max: 2800 mL
  Pre-BD FVC Observed, Mean ± SD: 2690.0 ± 181.93 mL
  Pre-BD FVC Observed, Median: 2790.0 mL
  Pre-BD FVC Observed, Min: 2480 mL
  Pre-BD FVC Observed, Q1: 2480 mL
  Pre-BD FVC Observed, Q3: 2800 mL
  Pre-BD FVC change from baseline, Max: 370 mL
  Pre-BD FVC change from baseline, Mean ± SD: 280.0 ± 90.00 mL
  Pre-BD FVC change from baseline, Median: 280.0 mL
  Pre-BD FVC change from baseline, Min: 190 mL
  Pre-BD FVC change from baseline, Q1: 190 mL
  Pre-BD FVC change from baseline, Q3: 370 mL
  Pre-BD Peak Flow % change from baseline, Max: 82%
  Pre-BD Peak Flow % change from baseline, Mean ± SD: 31.8 ± 45.54%
  Pre-BD Peak Flow % change from baseline, Median: 21.9%
  Pre-BD Peak Flow % change from baseline, Min: −8%
  Pre-BD Peak Flow % change from baseline, Q1: −8%
  Pre-BD Peak Flow % change from baseline, Q3: 82%
  Pre-BD Peak Flow Observed, Max: 285 L/min
  Pre-BD Peak Flow Observed, Mean ± SD: 208.7 ± 66.53 L/min
  Pre-BD Peak Flow Observed, Median: 178.0 L/min
  Pre-BD Peak Flow Observed, Min: 163 L/min
  Pre-BD Peak Flow Observed, Q1: 163 L/min
  Pre-BD Peak Flow Observed, Q3: 285 L/min
  Pre-BD Peak Flow change from baseline, Max: 128 L/min
  Pre-BD Peak Flow change from baseline, Mean ± SD: 48.7 ± 72.45 L/min
  Pre-BD Peak Flow change from baseline, Median: 32.0 L/min
  Pre-BD Peak Flow change from baseline, Min: -14 L/min
  Pre-BD Peak Flow change from baseline, Q1: -14 L/min
  Pre-BD Peak Flow change from baseline, Q3: 128 L/min
